Results reported in US11925643B2, “Toll-like receptor 4 (TLR4) inhibitors and use thereof” (MOR RESEARCH APPLICATIONS LTD., priority 2018, dated 2024).
Residues, ends and D or L forms follow the SMILES beside them.

What was measured:
primary cardiomyocytes [1] = experiment: CK and LDH release by primary cardiomyocytes under hypoxia (MI like); type: cell-based, Rat
Experimental: (§1) Rat hearts (1-2 days old) were removed under sterile conditions and washed three times in phosphate-buffered saline (PBS) to remove excess blood cells. The hearts were minced and then gently agitated in RBD (a solution of proteolytic enzymes (Biological Institute, Ness-Ziona, Israel) prepared from fig tree extract, and diluted 1:100 in Ca^2+- and Mg^2+-free PBS) for a few cycles of 10 min each. Dulbecco's modified Eagle's medium (Biological Industries, Kibbutz Beit Haemek, Israel) containing 10% horse serum was added to supernatant suspensions containing the dissociated cells. The mixture was centrifuged at 1400 rpm for 4 min. The supernatant phase was discarded, and the cells were re-suspended. The cell suspension was diluted to 1.0×10^6 cells/ml, unless stated otherwise, and 1.5 ml of the suspension was placed in 35-mm plastic culture dishes collagen- or gelatin-coated, or on coated cover glasses. The cultures were incubated in a humidified atmosphere of 5% CO2 and 95% air at 37° C.
Using a vacuum pump, the oxygen rich air was evacuated from an incubator containing plates with cell cultures, and a 100% Argon atmosphere was let in, while maintaining a temperature of 37° C. The cell cultures were washed with PBS twice to remove glucose from the medium. Hypoxic treated cells were cultures in PBS without glucose. These cells lasted for 180 minutes.
(§2) Primary cardiomyocytes which were obtained by method described above, were treated with exemplary decoy peptides described herein. After 30 minutes of incubation, sepsis like (LPS treatment for 6 hours), or myocardial infarction (MI) like (hypoxia for 3 hours) conditions were imposed to measure the release of CK and LDH to the medium and determine the potential cardioprotective effect of the tested decoy peptides. Cytotoxicity and level of cell damage were assessed by spectrophotometric measurement of lactate dehydrogenase (LDH) and creatine kinase (CK) activities (at 30° C.). Results are presented as CK and LDH release in arbitrary units (a.u.)
(§3) Activity of LDH and CK was determined in the cell-culture medium (25 μl) transferred into 96-well plates, using commercial L-LDH/CK kits (such as those manufactured, e.g., by Sigma-Aldrich, BioVision™ or Thermo Fisher Scientific®).
(§4) Primary cardiomyocytes were treated with peptides and peptidomimetics of SEQ ID NOs:1-7 provided at concentrations ranging from 1 μM to 20 μM. Following 30 minutes of incubation, sepsis like (LPS treatment for 6 hours) or MI like (hypoxia for 3 hours) conditions were induced to determine the potential cardioprotective effect of the tested compounds. Creatine kinase (CK) and lactate dehydrogenase (LDH) activity were assayed to determine the level of cellular damage and cell protection effect. The experimental procedure is described in Materials and Methods above. Results are presented as CK and LDH release in arbitrary units (a.u.).

primary cardiomyocytes [2] = experiment: CK and LDH release by primary cardiomyocytes under LPS treatment (sepsis like); type: cell-based, Rat; conditions: LPS treatment; 20 μM
Experimental: as §1, §2, §3, §4

IκB = IκB protein level by Western blot in hypoxic cardiomyocytes; type: cell-based
Experimental: (§5) Frozen tissue/cell cultures of liver or heart were pulverized under liquid nitrogen and placed in a homogenization buffer ([…] phosphate buffer, […] sucrose, […] EDTA, […] phenylmethylsulfonyl fluoride (PMSF), and 0.1% vol/vol tergitol, pH 7.5). Myocytes from cell cultures were homogenized in lysis buffer.
(§6) Homogenates were centrifuged at 12K rpm for 10 minutes at 4° C., the supernatant was isolated, and protein levels were visualized by immunoblotting with antibodies. Briefly, proteins (60 μg/sample) were separated using SDS-PAGE gel (12%-15%) under denaturing conditions and electro-transferred (blotted) onto nitrocellulose (Bio-Rad) for 1 hour at 100 V. Membranes were blocked with 5% nonfat milk in Tris-buffered saline with 0.1% Tween® 20 (TBST) for 1 hour at room temperature. Primary antibodies were used at a 1:200-1:1000 concentration in TBST with 5% nonfat milk overnight at 4° C. Immunodetection of β-actin/GPDH was performed as an internal control. Dye 800/680 secondary antibodies were added at a concentration of 1:15000 for 1 hour at room temperature (LI-COR® Biosciences, NE, USA). Detection was carried out with LI-CORE® Odyssey® imaging system. Quantification of signals was carried out with the Odyssey® program.
The mechanism of action of peptidomimetics of SEQ ID NOs:1, 2 and 12 was studied in vitro in cardiomyocytes, under hypoxic conditions, by determining the expression level of the IκB gene, which is regulated by activation of TLR4, and by measuring the TLR4 mRNA levels. In addition, TLR4 expression level was measured in macrophage (derived from monocytes) treated with LPS.
IκB protein level was determined by Western blot as described in Material and Methods. The amount of IκB was normalized via-a-vis the amount of β-actin serving as the loading control (the β-actin is coded by a housekeeping gene and its level is expected to remain constant under any experimental conditions).

TLR4 = biological target: T1, TLR4 (Mus musculus, UniProt Q9QUK6); experiment: TLR4 protein level by Western blot in hypoxic cardiomyocytes; type: cell-based; conditions: 20 μM, hypoxic conditions
T1 construct: endogenous in cells; host or cells: primary cardiomyocytes under hypoxia
T1 sequence (Q9QUK6 26-835): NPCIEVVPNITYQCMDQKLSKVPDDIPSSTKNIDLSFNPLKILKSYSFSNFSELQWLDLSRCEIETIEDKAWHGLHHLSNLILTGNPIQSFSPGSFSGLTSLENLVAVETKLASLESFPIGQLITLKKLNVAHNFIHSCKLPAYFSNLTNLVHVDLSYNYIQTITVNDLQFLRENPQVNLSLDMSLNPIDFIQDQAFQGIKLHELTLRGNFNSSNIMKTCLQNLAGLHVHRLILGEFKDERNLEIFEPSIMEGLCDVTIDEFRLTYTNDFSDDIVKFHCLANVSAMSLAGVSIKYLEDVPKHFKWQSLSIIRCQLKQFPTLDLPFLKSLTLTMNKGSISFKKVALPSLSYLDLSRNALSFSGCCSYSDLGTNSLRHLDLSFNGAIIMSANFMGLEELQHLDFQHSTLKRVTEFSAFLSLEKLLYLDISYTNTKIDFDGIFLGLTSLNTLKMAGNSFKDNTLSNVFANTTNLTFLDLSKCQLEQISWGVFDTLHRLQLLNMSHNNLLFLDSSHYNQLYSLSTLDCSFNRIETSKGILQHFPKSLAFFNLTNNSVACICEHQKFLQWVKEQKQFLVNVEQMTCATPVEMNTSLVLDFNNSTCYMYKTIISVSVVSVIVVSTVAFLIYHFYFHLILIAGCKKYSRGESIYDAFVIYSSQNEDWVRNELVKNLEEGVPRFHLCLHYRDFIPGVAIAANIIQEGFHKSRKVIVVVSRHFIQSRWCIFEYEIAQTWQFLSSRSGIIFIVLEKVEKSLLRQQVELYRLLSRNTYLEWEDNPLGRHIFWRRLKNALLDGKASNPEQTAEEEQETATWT
Experimental: as §5
as §6, with “program. […]” for “program.”

Row | Structure (SMILES) | CK release (primary cardiomyocytes [1]; 20 μM) | LDH release (primary cardiomyocytes [1]; 20 μM) | CK release (primary cardiomyocytes [2]) | LDH release (primary cardiomyocytes [2]) | inhibition of decrease of IκB protein level (IκB; 20 μM, compared to hypoxic cells not treated) | decrease of TLR4 protein expression (TLR4) [fold] | minimal effective concentration (cardioprotective effect, CK and LDH release) (primary cardiomyocytes [1]) [µM] | IκB level (IκB; normalized to β-actin) | decrease of TLR4 protein expression relative to PM6 (TLR4; positive control)
1 | CCCCCCCCNc1nc(=O)n(Cc2ccccc2)cc1C [PM6, 1-benzyl-5-methyl-4-(octylamino)pyrimidin-2(1H)-one] | significant reduction | significant reduction | no significant effect | no significant effect | roughly 7 fold | 7.6 |  |  | 
2 | CC[C@H](C)[C@H](NC(C)=O)C(=O)N[C@H](C(=O)N[C@@H](Cc1ccccc1)C(=O)N[C@@H](C)C(N)=O)C(C)C [SEQ ID NO:1, (2S,3S)-2-acetamido-N-((S)-1-(((S)-1-(((S)-1-amino-1-oxopropan-2-yl)amino)-1-oxo-3-phenylpropan-2-yl)amino)-3-methyl-1-oxobutan-2-yl)-3-methylpentanamide] (Ac-IVFA-NH2) |  |  | subnormal levels | subnormal levels |  |  | 1 | high levels | same extent
